Experimental data published in patent US20260158011A1 (Achieve Life Sciences, Inc., priority 2023, published 2026).
Where two headings read alike, the source gives them in different places.

Test system: adult daily cigarette smokers
[1] = drug reduction Day 35, first Insomnia listing, pooled blinded
[2] = drug reduction Day 35, pooled blinded
[3] = drug reduction Day 35, second Insomnia listing, pooled blinded
[4] = drug reduction Day 42, pooled blinded
[5] = drug reduction Day 49, pooled blinded
[6] = drug reduction Day 55, pooled blinded
[7] = drug reduction Day 58, pooled blinded
[8] = drug reduction Day 63, pooled blinded
[9] = follow up period, start day 86, resolution day 87, pooled blinded
[10] = follow up period, start day 87, resolution day 90, pooled blinded
[11] = follow up period, start day 87, resolution day 96, pooled blinded
[12] = follow up period, start day 102, resolution day 105, pooled blinded
[13] = follow up period, start day 104, resolution day 105, pooled blinded
[14] = follow up period, start day 107, resolution day 111, pooled blinded
[15] = follow up period, start day 112, resolution day 113, pooled blinded
[16] = follow up period, start day 115, resolution day 120, pooled blinded
[17] = follow up period, start day 119, resolution day 139, pooled blinded
[18] = follow up period, start day 146, no resolution day, pooled blinded
[19] = follow up period, start day 148, resolution day 152, pooled blinded
[20] = follow up period, start day 151, resolution day 161, pooled blinded
[21] = follow up period, start day 161, resolution day 161, pooled blinded
[22] = follow up period, start day 180, no resolution day, pooled blinded

Protocol: Subjects are randomized to one of the three arms A, B, or C. In Arm A, subjects are treated with a placebo for 12 weeks plus behavioral support. In Arm B, subjects are treated with 3.0 mg cytisinicline TID for 6 weeks followed by a placebo for 6 weeks plus behavioral support. In Arm C, subjects are treated with 3.0 mg cytisinicline TID for 12 weeks plus behavioral support.
The safety objectives of the study will be the following: • To evaluate the safety profile of 3.0 mg TID cytisinicline compared to placebo (e.g., Arm B versus Arm A and Arm C versus Arm A); • To compare the safety profiles of Arm B subjects versus Arm C subjects with respect to adverse events occurring after Week 6 on the study.
The population for this study will be male or female adults who are daily cigarette smokers, intending to quit smoking, and are willing to set a quit date that is within 5 to 7 days of the start of treatment. Study treatment will start the day after randomization.
Safety assessments at clinic visits will occur on Day 2 and Day 7 during Week 1 and then weekly throughout the Treatment Period. Laboratory hematology and chemistry assessments will be made on Day 7, Week 6, and Week 12 (End of Treatment “EOT”) during the Treatment Period. Any ongoing adverse events at Week 12 will be followed until resolved or determined to be chronic. The end of study is defined as the last follow-up visit (up to the Week 24 visit) for the last subject.
The Treatment Period will begin on the day after randomization. Study treatment will be blinded, and subjects will take one study tablet three times during the day, approximately 5 hours apart. Subjects randomly assigned to Arm A will take one placebo tablet at each dosing per day for 12 weeks. Arm B subjects will take one cytisinicline tablet at each dosing per day for the first 6 weeks followed by one placebo tablet at each dosing per day for the last 6 weeks. Arm C subjects will take one cytisinicline tablet at each dosing per day for 12 weeks.
Laboratory (hematology and chemistry) evaluations will be performed at the Week 1, Week 6, and Week 12 clinic visits using a central laboratory.
Safety will be assessed by consideration of all adverse events reported by or elicited from the subject and abnormalities detected on hematology and serum chemistry tests. Worsening of other pre-existing medical conditions and any changes to concomitant medications/treatments will also be taken into account in this evaluation.
Routine laboratory safety samples will be analyzed at screening and at clinic visits as identified in Table 15 for each subject by a central laboratory. […] Clinically significant abnormalities occurring during the study will be recorded on the AE page. The reference ranges for laboratory parameters will also be entered in the database and filed in the Investigator site file.
Safety assessments will include reported adverse events, laboratory test results, and vital signs. Safety variables will be summarized for the Safety Analysis Set (SAS), defined as all randomized subjects who take at least one dose of study drug.
Adverse events (AEs) will be coded using the MedDRA dictionary. Coding will include system organ class (SOC) and preferred term (PT). All verbatim descriptions and coded terms will be listed for all AEs.

O=c1cccc2n1C[C@@H]1CNC[C@H]2C1 [cytisine, (−)-Cytisine]
Dose reduction for Insomnia: Outcome [1]: Recovered/Resolved
Dose reduction for Insomnia: Relatedness [1]: Probable
Dose reduction for Insomnia: Severity [1]: Moderate
Dose reduction for Burning Eyes: Outcome [2]: Recovered/Resolved
Dose reduction for Burning Eyes: Relatedness [2]: Possible
Dose reduction for Burning Eyes: Severity [2]: Moderate
Dose reduction for Headache: Outcome [2]: Recovered/Resolved
Dose reduction for Headache: Relatedness [2]: Possible
Dose reduction for Headache: Severity [2]: Moderate
Dose reduction for Nausea: Outcome [2]: Recovered/Resolved
Dose reduction for Nausea: Relatedness [2]: Possible
Dose reduction for Nausea: Severity [2]: Moderate
Dose reduction for Sinus Congestion: Outcome [2]: Recovered/Resolved
Dose reduction for Sinus Congestion: Relatedness [2]: Possible
Dose reduction for Sinus Congestion: Severity [2]: Moderate
Dose reduction for Sinus Pressure: Outcome [2]: Recovered/Resolved
Dose reduction for Sinus Pressure: Relatedness [2]: Possible
Dose reduction for Sinus Pressure: Severity [2]: Moderate
Dose reduction for Insomnia: Outcome [3]: Recovered/Resolved
Dose reduction for Insomnia: Relatedness [3]: Possible
Dose reduction for Insomnia: Severity [3]: Moderate
Dose reduction for Difficulty Falling Asleep: Outcome [4]: Recovered/Resolved
Dose reduction for Difficulty Falling Asleep: Relatedness [4]: Possible
Dose reduction for Difficulty Falling Asleep: Severity [4]: Moderate
Dose reduction for Restless Leg Syndrome: Outcome [5]: Recovered/Resolved
Dose reduction for Restless Leg Syndrome: Relatedness [5]: Possible
Dose reduction for Restless Leg Syndrome: Severity [5]: Moderate
Dose reduction for Memory Loss: Outcome [6]: Recovered/Resolved
Dose reduction for Memory Loss: Relatedness [6]: Possible
Dose reduction for Memory Loss: Severity [6]: Moderate
Dose reduction for Bilateral Foot Swelling: Outcome [7]: Recovered/Resolved
Dose reduction for Bilateral Foot Swelling: Relatedness [7]: Possible
Dose reduction for Bilateral Foot Swelling: Severity [7]: Mild
Dose reduction for Facial Swelling (Forehead Area): Outcome [7]: Recovered/Resolved
Dose reduction for Facial Swelling (Forehead Area): Relatedness [7]: Possible
Dose reduction for Facial Swelling (Forehead Area): Severity [7]: Mild
Dose reduction for Right Hand Swelling: Outcome [7]: Recovered/Resolved
Dose reduction for Right Hand Swelling: Relatedness [7]: Possible
Dose reduction for Right Hand Swelling: Severity [7]: Mild
Dose reduction for Headache: Outcome [8]: Recovered/Resolved
Dose reduction for Headache: Relatedness [8]: Possible
Dose reduction for Headache: Severity [8]: Mild
Serious adverse event Post Surgical Complications: Causality [9]: Not
Serious adverse event Post Surgical Complications: Outcome [9]: Fatal
Serious adverse event Post Surgical Complications: Severity/Intensity [9]: Severe
Serious adverse event Worsening Fatigue: Causality [10]: Not
Serious adverse event Worsening Fatigue: Outcome [10]: Recovered/Resolved
Serious adverse event Worsening Fatigue: Severity/Intensity [10]: Moderate
Serious adverse event Coronary Atherosclerosis: Causality [11]: Not
Serious adverse event Coronary Atherosclerosis: Outcome [11]: Recovered/Resolved
Serious adverse event Coronary Atherosclerosis: Severity/Intensity [11]: Severe
Serious adverse event Acute Cholecystitis: Causality [12]: Not
Serious adverse event Acute Cholecystitis: Outcome [12]: Recovered/Resolved
Serious adverse event Acute Cholecystitis: Severity/Intensity [12]: Moderate
Serious adverse event Transient Ischemic Attack: Causality [13]: Not
Serious adverse event Transient Ischemic Attack: Outcome [13]: Recovered/Resolved
Serious adverse event Transient Ischemic Attack: Severity/Intensity [13]: Severe
Serious adverse event Perforated Bowel: Causality [14]: Not
Serious adverse event Perforated Bowel: Outcome [14]: Recovered/Resolved
Serious adverse event Perforated Bowel: Severity/Intensity [14]: Severe
Serious adverse event Abscess on Right Groin Area: Causality [15]: Not
Serious adverse event Abscess on Right Groin Area: Outcome [15]: Recovered/Resolved
Serious adverse event Abscess on Right Groin Area: Severity/Intensity [15]: Severe
Serious adverse event COPD Exacerbation: Causality [16]: Not
Serious adverse event COPD Exacerbation: Outcome [16]: Recovered/Resolved
Serious adverse event COPD Exacerbation: Severity/Intensity [16]: Severe
Serious adverse event Sepsis: Causality [16]: Unlikely
Serious adverse event Sepsis: Outcome [16]: Recovered/Resolved
Serious adverse event Sepsis: Severity/Intensity [16]: Severe
Serious adverse event Pneumonia: Causality [17]: Not
Serious adverse event Pneumonia: Outcome [17]: Recovered/Resolved
Serious adverse event Pneumonia: Severity/Intensity [17]: Severe
Serious adverse event Acute Kidney Injury Superimposed to Chronic Kidney Disease: Causality [18]: Unlikely
Serious adverse event Acute Kidney Injury Superimposed to Chronic Kidney Disease: Outcome [18]: Not Recovered/Not
Serious adverse event Acute Kidney Injury Superimposed to Chronic Kidney Disease: Severity/Intensity [18]: Severe
Serious adverse event Ureterolithiasis: Causality [18]: Unlikely
Serious adverse event Ureterolithiasis: Outcome [18]: Not Recovered/Not
Serious adverse event Ureterolithiasis: Severity/Intensity [18]: Severe
Serious adverse event Pneumonia: Causality [19]: Not
Serious adverse event Pneumonia: Outcome [19]: Recovered/Resolved
Serious adverse event Pneumonia: Severity/Intensity [19]: Severe
Serious adverse event Dyspnea: Causality [20]: Unlikely
Serious adverse event Dyspnea: Outcome [20]: Recovered/Resolved
Serious adverse event Dyspnea: Severity/Intensity [20]: Severe
Serious adverse event Stab Wound: Causality [21]: Not
Serious adverse event Stab Wound: Outcome [21]: Fatal
Serious adverse event Stab Wound: Severity/Intensity [21]: Severe
Serious adverse event Dyspnea: Causality [22]: Not
Serious adverse event Dyspnea: Outcome [22]: Not Recovered/Not
Serious adverse event Dyspnea: Severity/Intensity [22]: Severe
Psychiatric adverse event Abnormal dreams, % (pooled blinded data): (7.5) %
Psychiatric adverse event Acute stress disorder, % (pooled blinded data): (0.1) %
Psychiatric adverse event Adjustment disorder with depressed mood, % (pooled blinded data): (0.1) %
Psychiatric adverse event Affect lability, % (pooled blinded data): (0.1) %
Psychiatric adverse event Anhedonia, % (pooled blinded data): (0.5) %
Psychiatric adverse event Anxiety, % (pooled blinded data): (2.5) %
Psychiatric adverse event Attention deficit hyperactivity disorder, % (pooled blinded data): (0.1) %
Psychiatric adverse event Bipolar disorder, % (pooled blinded data): (0.1) %
Psychiatric adverse event Bruxism, % (pooled blinded data): (0.1) %
Psychiatric adverse event Depressed mood, % (pooled blinded data): (0.5) %
Psychiatric adverse event Depression, % (pooled blinded data): (2.0) %
Psychiatric adverse event Initial insomnia, % (pooled blinded data): (0.3) %
Psychiatric adverse event Insomnia, % (pooled blinded data): (10.2) %
Psychiatric adverse event Irritability, % (pooled blinded data): (1.7) %
Psychiatric adverse event Major depression, % (pooled blinded data): (0.1) %
Psychiatric adverse event Mood swings, % (pooled blinded data): (0.1) %
Psychiatric adverse event Nightmare, % (pooled blinded data): (1.1) %
Psychiatric adverse event Panic attack, % (pooled blinded data): (0.3) %
Psychiatric adverse event Paranoia, % (pooled blinded data): (0.1) %
Psychiatric adverse event Post-traumatic stress disorder, % (pooled blinded data): (0.1) %
Psychiatric adverse event Restlessness, % (pooled blinded data): (0.3) %
Psychiatric adverse event Sleep disorder, % (pooled blinded data): (0.5) %
Psychiatric adverse event Somnambulism, % (pooled blinded data): (0.1) %
Psychiatric adverse event Stress, % (pooled blinded data): (0.1) %
Psychiatric adverse event Suicidal ideation, % (pooled blinded data): (0.1) %
Psychiatric adverse event Suicide attempt, % (pooled blinded data): (0.3) %
Psychiatric disorders (any psychiatric reported adverse event), % (pooled blinded data): (22.9) %
Abnormal lab AE related to study drug, Elevated ALT Level: Outcome of Adverse Event (start Day 29, dose not changed): Recovered/Resolved
Abnormal lab AE related to study drug, Elevated ALT Level: Severity (start Day 29, dose not changed): Mild
Abnormal lab AE related to study drug, Elevated AST Level: Outcome of Adverse Event (start Day 29, dose not changed): Recovered/Resolved
Abnormal lab AE related to study drug, Elevated AST Level: Severity (start Day 29, dose not changed): Mild
Abnormal lab AE related to study drug, Elevated Hemoglobin: Outcome of Adverse Event (start Day 85): Recovered/Resolved
Abnormal lab AE related to study drug, Low White Blood Count: Outcome of Adverse Event (start Day 85): Not Recovered/Not
Abnormal lab AE related to study drug, Elevated ALT: Outcome of Adverse Event (start Day 169): Not Recovered/Not
Abnormal lab AE related to study drug, Elevated ALT: Severity (start Day 169): Moderate
Abnormal lab AE related to study drug, Low White Blood Count: Parameter value at AE (value at screening 5.1 × 10^9/L, start Day 85): 2.5e+09 L⁻¹
Abnormal lab AE related to study drug, Elevated ALT Level: Parameter value at AE (value at screening 25 IU/L, start Day 29, dose not changed): 195 IU/L
Abnormal lab AE related to study drug, Elevated AST Level: Parameter value at AE (value at screening 29 IU/L, start Day 29, dose not changed): 129 IU/L
Abnormal lab AE related to study drug, Elevated ALT: Parameter value at AE (value at screening 50 IU/L, start Day 169): 82 IU/L
Abnormal lab AE related to study drug, Elevated Hemoglobin: Parameter value at AE (value at screening 158 g/L, start Day 85): 130 g/L
